Target: T1, VEGFR/KDR (Homo sapiens, UniProt P35968)
T1 construct: made in house; host or cells: Sf9 cells (Spodoptera frugiperda), baculovirus
Test: VEGFR/KDR kinase inhibition, DELFIA assay
Format: biochemical
Conditions: ATP 0.6 uM (2x Km), enzyme 5 nM
Description: Inhibition of VEGFR/KDR is measured in a DELFIA™ assay (Perkin Elmer). The substrate poly(Glu4, Tyr) is immobilized onto black high-binding polystyrene 96-well plates. The coated plates are washed and stored at 4° C. During the assay, the enzyme is pre-incubated with inhibitor and Mg-ATP on ice in polypropylene 96-well plates for 4 minutes, and then transferred to the coated plates. The subsequent kinase reaction takes place at 30° C. for 10-30 minutes. ATP concentrations in the assay are 0.6 uM for VEGFR/KDR (2× the Km). Enzyme concentration is 5 nM. After incubation, the kinase reactions are quenched with EDTA and the plates are washed. Phosphorylated product is detected by incubation with Europium-labeled anti-phosphotyrosine MoAb. After washing the plates, bound MoAb is detected by time-resolved fluorescence in a Gemini SpectraMax reader (Molecular Devices). Compounds are evaluated over a range of concentrations, and IC50 values (concentration of compounds giving 50% inhibition of enzymatic activity) are determined.

T1 sequence (P35968 806-1356): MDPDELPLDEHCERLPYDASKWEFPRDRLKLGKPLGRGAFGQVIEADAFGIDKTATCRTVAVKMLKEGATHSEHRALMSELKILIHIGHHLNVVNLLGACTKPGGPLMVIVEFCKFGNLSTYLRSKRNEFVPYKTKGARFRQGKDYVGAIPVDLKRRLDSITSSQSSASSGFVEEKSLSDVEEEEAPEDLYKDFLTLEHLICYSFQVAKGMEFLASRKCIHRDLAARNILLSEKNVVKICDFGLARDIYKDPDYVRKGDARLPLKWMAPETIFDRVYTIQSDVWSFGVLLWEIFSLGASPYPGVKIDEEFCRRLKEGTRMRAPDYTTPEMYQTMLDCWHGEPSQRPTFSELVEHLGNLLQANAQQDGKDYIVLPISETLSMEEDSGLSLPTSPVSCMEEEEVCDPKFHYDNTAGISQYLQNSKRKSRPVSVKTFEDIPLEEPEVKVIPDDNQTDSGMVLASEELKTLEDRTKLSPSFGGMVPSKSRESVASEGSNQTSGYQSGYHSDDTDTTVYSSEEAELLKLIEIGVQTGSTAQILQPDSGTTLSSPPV

`CN1CCN(C(=O)C2CCN(Cc3ccc(-c4cc5nccc(Oc6ccc(NC(=O)NC7CC7)cc6F)c5s4)nc3)CC2)CC1` [Compound 482, 1-cyclopropyl-3-(3-fluoro-4-(2-(5-((4-(4-methylpiperazine-1-carbonyl)piperidin-1-yl)methyl)pyridin-2-yl)thieno[3,2-b]pyridin-7-yloxy)phenyl)urea] and `CN1CCN(C(=O)C2CCCN(Cc3ccc(-c4cc5nccc(Oc6ccc(NC(=O)NC7CC7)cc6F)c5s4)nc3)C2)CC1` (stereo not drawn) [Compound 493, 1-cyclopropyl-3-(3-fluoro-4-(2-(5-((3-(4-methylpiperazine-1-carbonyl)piperidin-1-yl)methyl)pyridin-2-yl)thieno[3,2-b]pyridin-7-yloxy)phenyl)urea] cannot be ordered by IC50: < 50 nM for the first, < 50 nM for the second.

First: O=C(Nc1ccc(Oc2ccnc3cc(C#CCN4CCOCC4)sc23)c(F)c1)Nc1ccc(F)cc1F [Compound 119, 1-(2,4-difluorophenyl)-3-(3-fluoro-4-(2-(3-morpholinoprop-1-ynyl)thieno[3,2-b]pyridin-7-yloxy)phenyl)urea]
Second: O=C(Nc1ccc(Oc2ccnc3cc(-c4ccc(CN5CC[C@H](F)C5)cn4)sc23)c(F)c1)NC1CC1 [Compound 323, (S)-1-cyclopropyl-3-(3-fluoro-4-(2-(5-((3-fluoropyrrolidin-1-yl)methyl)pyridin-2-yl)thieno[3,2-b]pyridin-7-yloxy)phenyl)urea]
The IC50 of the first is higher: 100 to 250 nM for the first, < 50 nM for the second.

`CC(=O)O[C@@H]1CCN(C(=O)c2cc3nccc(Oc4ccc(NC(=O)NC5CC5)cc4F)c3s2)C1` [Compound 467, (R)-1-(7-(4-(3-cyclopropylureido)-2-fluorophenoxy)thieno[3,2-b]pyridine-2-carbonyl)pyrrolidin-3-yl acetate] and `CC(=O)N[C@@H]1CCN(C(=O)c2cc3nccc(Oc4ccc(NC(=O)NC5CC5)cc4F)c3s2)C1` [Compound 453] cannot be ordered by IC50: < 50 nM for the first, < 50 nM for the second.

`NC1CCN(C(=O)c2ccc(-c3cc4nccc(Oc5ccc(NC(=O)NC6CC6)cc5F)c4s3)nc2)CC1` [Compound 400] and `O=C(Nc1ccc(Oc2ccnc3cc(-c4ccc(C(=O)N5CCN(C(=O)CO)CC5)cn4)sc23)c(F)c1)NC1CC1` [Compound 584] cannot be ordered by IC50: < 50 nM for the first, < 50 nM for the second.

`CCNC(=O)N1CCN(C(=O)Cn2cc(-c3cc4nccc(Oc5ccc(NC(=O)NC6CC6)cc5F)c4s3)nn2)CC1` [Compound 394] and `CC(=O)OCC(=O)N1CCN(C(=O)Cn2cc(-c3cc4nccc(Oc5ccc(NC(=O)NC6CC6)cc5F)c4s3)nn2)CC1` [Compound 390] cannot be ordered by IC50: < 50 nM for the first, < 50 nM for the second.

`COCCOCCOCC(=O)N1CCN(Cc2ccc(-c3cc4nccc(Oc5ccc(NC(=O)NC6CC6)cc5F)c4s3)nc2)CC1` [Compound 588, 1-Cyclopropyl-3-(3-fluoro-4-(2-(5-((4-(2-(2-(2-methoxyethoxy)ethoxy)acetyl)piperazin-1-yl)methyl)pyridin-2-yl)thieno[3,2-b]pyridin-7-yloxy)phenyl)urea] and `COC(=O)CC(=O)N1CCN(Cc2ccc(-c3cc4nccc(Oc5ccc(NC(=O)NC6CC6)cc5F)c4s3)nc2)CC1` [Compound 506, methyl 3-(4-((6-(7-(4-(3-cyclopropylureido)-2-fluorophenoxy)thieno[3,2-b]pyridin-2-yl)pyridin-3-yl)methyl)piperazin-1-yl)-3-oxopropanoate] cannot be ordered by IC50: < 50 nM for the first, < 50 nM for the second.

`C[C@@H]1CN(Cc2ccc(-c3cc4nccc(Oc5ccc(NC(=O)NC6CC6)cc5F)c4s3)nc2)C[C@H](C)N1CCO` [Compound 583] and `O=C(Nc1ccc(Oc2ccnc3cc(-c4ccc(CN5CC(C(=O)O)C5)cn4)sc23)c(F)c1)NC1CC1` [Compound 477, 1-((6-(7-(4-(3-cyclopropylureido)-2-fluorophenoxy)thieno[3,2-b]pyridin-2-yl)pyridin-3-yl)methyl)azetidine-3-carboxylic acid] cannot be ordered by IC50: < 50 nM for the first, < 50 nM for the second.

`CCN(CC)CCNC(=O)c1ccc(NCc2ccc(-c3cc4nccc(Oc5ccc(NC(=O)NC6CC6)cc5F)c4s3)nc2)cc1` [Compound 340, 4-((6-(7-(4-(3-cyclopropylureido)-2-fluorophenoxy)thieno[3,2-b]pyridin-2-yl)pyridin-3-yl)methylamino)-N-(2-(diethylamino)ethyl)benzamide] and `Cn1ccc(NCc2ccc(-c3cc4nccc(Oc5ccc(NC(=O)NC6CC6)cc5F)c4s3)nc2)n1` [Compound 334, 1-Cyclopropyl-3-(3-fluoro-4-(2-(5-((1-methyl-1H-pyrazol-3-ylamino)methyl)pyridin-2-yl)thieno[3,2-b]pyridin-7-yloxy)phenyl)urea] cannot be ordered by IC50: < 50 nM for the first, < 50 nM for the second.

`CN1CCN(C(=O)CCn2cc(-c3cc4nccc(Oc5ccc(NC(=O)NC6CC6)cc5F)c4s3)nn2)CC1` [Compound 378] and `O=C(Nc1ccc(Oc2ccnc3cc(-c4cn(CC(=O)N5CCCCC5)nn4)sc23)c(F)c1)NC1CC1` [Compound 372, 1-cyclopropyl-3-(3-fluoro-4-(2-(1-(2-oxo-2-(piperidin-1-yl)ethyl)-1H-1,2,3-triazol-4-yl)thieno[3,2-b]pyridin-7-yloxy)phenyl)urea] cannot be ordered by IC50: < 50 nM for the first, < 50 nM for the second.

`CCN(CC)CCn1cc(-c2cc3nccc(Oc4ccc(NC(=O)NC5CC5)cc4F)c3s2)nn1` [Compound 363] and `CN(CCO)Cc1ccc(-c2cc3nccc(Oc4ccc(NC(=O)NC5CC5)cc4F)c3s2)nc1` [Compound 50-A] cannot be ordered by IC50: < 50 nM for the first, < 50 nM for the second.

`C[C@H]1CN(Cc2ccc(-c3cc4nccc(Oc5ccc(NC(=O)NC6CC6)cc5F)c4s3)nc2)CCN1C(=O)CO` [Compound 529, (S)-1-cyclopropyl-3-(3-fluoro-4-(2-(5-((4-(2-hydroxyacetyl)-3-methylpiperazin-1-yl)methyl)pyridin-2-yl)thieno[3,2-b]pyridin-7-yloxy)phenyl)urea] and `O=C(CO)NC1CN(Cc2ccc(-c3cc4nccc(Oc5ccc(NC(=O)NC6CC6)cc5F)c4s3)nc2)C1` [Compound 414] cannot be ordered by IC50: < 50 nM for the first, < 50 nM for the second.

`CC(C)(C)OC(=O)NCC(=O)N1CCN(C(=O)Cn2cc(-c3cc4nccc(Oc5ccc(NC(=O)NC6CC6)cc5F)c4s3)nn2)CC1` [Compound 392] and `CC(C)(C)OC(=O)N[C@@H]1CCN(Cc2ccc(-c3cc4nccc(Oc5ccc(NC(=O)NC6CC6)cc5F)c4s3)nc2)C1` [Compound 481, (R)-tert-butyl 1-((6-(7-(4-(3-cyclopropylureido)-2-fluorophenoxy)thieno[3,2-b]pyridin-2-yl)pyridin-3-yl)methyl)pyrrolidin-3-ylcarbamate] cannot be ordered by IC50: < 50 nM for the first, < 50 nM for the second.

First: CC(C)NC(=O)Nc1ccc(Oc2ccnc3cc(-c4ccc(CN5CCCC5=O)cc4)sc23)c(F)c1 [Compound 205, 1-(3-fluoro-4-(2-(4-((2-oxopyrrolidin-1-yl)methyl)phenyl)thieno[3,2-b]pyridin-7-yloxy)phenyl)-3-isopropylurea]
Second: CS(=O)(=O)c1cccc(NC(=O)Nc2ccc(Oc3ccnc4cc(-c5ccc(CN6CCCC6=O)cn5)sc34)c(F)c2)c1 [Compound 105]
The IC50 of the first is higher: 50 to 100 nM for the first, < 50 nM for the second.

`CC(O)CN1CCN(Cc2ccc(-c3cc4nccc(Oc5ccc(NC(=O)NC6CC6)cc5F)c4s3)nc2)CC1` (stereo not drawn) [Compound 562] and `C[C@H](CN1CCN(Cc2ccc(-c3cc4nccc(Oc5ccc(NC(=O)NC6CC6)cc5F)c4s3)nc2)CC1)C(=O)O` [Compound 574] cannot be ordered by IC50: < 50 nM for the first, < 50 nM for the second.

`COCCN(Cc1ccc(-c2cc3nccc(Oc4ccc(NC(=O)NC5CC5)cc4F)c3s2)cc1)C(=O)CO` [Compound 115-A, N-(4-(7-(4-(3-cyclopropylureido)-2-fluorophenoxy)thieno[3,2-b]pyridin-2-yl)benzyl)-2-hydroxy-N-(2-methoxyethyl)acetamide] and `COCCN(Cc1ccc(-c2cc3nccc(Oc4ccc(NC(=O)NC5CC5)cc4F)c3s2)nc1)C(=O)N(C)C` [Compound 4, N-[3-((6-(7-(4-(3-cyclopropylureido)-2-fluorophenoxy)thieno[3,2-b]pyridin-2-yl)pyridin-3-yl)methyl)]-N-(1,1-dimethyl)-N-[3-(2-methoxyethyl)]urea] cannot be ordered by IC50: < 50 nM for the first, < 50 nM for the second.

`O=C(Nc1ccc(Oc2ccnc3cc(-c4ccc(CN5CCC6(CC5)CCN(C(=O)CO)C6)cn4)sc23)c(F)c1)NC1CC1` [Compound 524, 1-cyclopropyl-3-(3-fluoro-4-(2-(5-((2-(2-hydroxyacetyl)-2,8-diazaspiro[4.5]decan-8-yl)methyl)pyridin-2-yl)thieno[3,2-b]pyridin-7-yloxy)phenyl)urea] and `CNC1CCN(Cc2ccc(-c3cc4nccc(Oc5ccc(NC(=O)NC6CC6)cc5F)c4s3)nc2)CC1` [Compound 401] cannot be ordered by IC50: < 50 nM for the first, < 50 nM for the second.

`NC(=O)c1cccc(NC(=O)Nc2ccc(Oc3ccnc4cc(-c5ccc(CN6CCCC6=O)cn5)sc34)c(F)c2)c1` [Compound 106, 3-(3-(3-fluoro-4-(2-(5-((2-oxopyrrolidin-1-yl)methyl)pyridin-2-yl)thieno[3,2-b]pyridin-7-yloxy)phenyl)ureido)benzamide] and `CCNC(=O)NC1CCN(Cc2ccc(-c3cc4nccc(Oc5ccc(NC(=O)NC6CC6)cc5F)c4s3)nc2)CC1` [Compound 353] cannot be ordered by IC50: < 50 nM for the first, < 50 nM for the second.

`O=C(Nc1ccc(Oc2ccnc3cc(-c4ccc(C(=O)N5CCOC(C(=O)O)C5)cn4)sc23)c(F)c1)NC1CC1` (stereo not drawn) [Compound 241, 4-(6-(7-(4-(3-cyclopropylureido)-2-fluorophenoxy)thieno[3,2-b]-pyridin-2-yl)nicotinoyl)morpholine-2-carboxylic acid] and `O=C(Nc1ccc(Oc2ccnc3cc(-c4ccc(CN5CCN(C(=O)CCCC[C@H]6SC[C@H]7NC(=O)N[C@H]76)CC5)cn4)sc23)c(F)c1)NC1CC1` [Compound 535] cannot be ordered by IC50: < 50 nM for the first, < 50 nM for the second.

Source: patent US8906852B2 (MethylGene Inc., priority 2010, dated 2014)
